Measurements from doi:10.1101/496141v1 (bioRxiv, 2018).

How the values were obtained:
Assay type in all cases: in vivo, mouse
Tg2576 mice = experiment: Contextual fear conditioning in Tg2576 mice; details: 7 months old mice, 20 mg/kg i.p. 1h before training; vs Tg2576 SCR
Hdh^Q111/+ knock-in mice = experiment: Hdh Q111/+ knock-in mice: striatal caspase-3 and pERK; details: 20 mg/kg i.p. for 8 days; twice a day, 7 days; vs SCR
[1] = system: ERK phosphorylation (pERK); experiment: pERK positive cells in dorsal striatum after i.p. RB5; details: single dose 20 mg/kg i.p., n=5 mice/group, vs SCR at 1h

Q: “GRKKRRQRRRPPQGGGGGEPRRTEGVGPGVPGEVEMVKGQPFDV [RB5]” was tested. Which “contextual fear memory impairment in Tg2576 mice (% of time spent freezing, 24h)” value (Tg2576 mice) did it give?
A: fully rescued

Q: What about the “caspase-3 levels in striatum of Hdh^Q111/+ mice” value (Hdh^Q111/+ knock-in mice) of the same sequence?
A: diminished caspase-3 levels

Q: What about the “duration of enhancement of ERK phosphorylation in dorsal striatum” value [1] of the same sequence?
A: up to 6 h
